For orientation: viability means a read-out of living cells in per cent, often relative to untreated cells.

A short description of this data set: in vitro. The following applies: human, hela cells, % viability.
For `CC#CC(=O)N1CCCC(Cc2ccc(F)cc2F)(C(=O)OCC)C1` (stereo not drawn) [CBK307051], the viability at 28.5 h, 10 µM stood at 111%.
Next, `Cc1cc(N2CCCN(C(=O)CCCOc3ccccc3)CC2)ccn1` [CBK307052]: 86.6%; `CSc1ncc(C(=O)N2CCC(N3CCCC(O)C3)CC2)cn1` (stereo not drawn) [CBK307055]: 106%; `CCOC(=O)C1CCCN(Cc2cccc(Cl)c2Cl)C1` (stereo not drawn) [CBK307056]: 85.2%.
Next, `Cc1ncccc1OC1(C(=O)NCc2n[nH]c3c2CCC3)CCNCC1` [CBK307057]: 101%; `Cc1cnn(C2(C(=O)O)CCN(C(=O)c3cccc(C#N)c3)CC2)c1` [CBK307058]: 102%.
For `Cn1c(=O)n(C)c2cc(CNC(=O)COCC3CCCCO3)ccc21` (stereo not drawn) [CBK307061], the viability at 28.5 h, 10 µM worked out at 109%.
As for `Cc1ccc(F)c(OC2(C(=O)O)CCN(Cc3ncc[nH]3)CC2)c1` [CBK307062], the figure is 85.2%; as for `Cc1c(C(=O)N2CCC(N3CCSCC3)CC2)[nH]c2c(F)cccc12` [CBK307065], 96.8%; as for `CC(C)Cn1cncc1CNS(=O)(=O)c1cccc(C(=O)N2CCC2)c1` [CBK307068], 90.3%.
Next, `CSc1nccc(N2CCC(NCCn3c(C)cc(C)nc3=O)CC2)n1` [CBK307070]: 85.3%.
Next, `COc1ccc(Cn2ncnc2CC2CCNCC2)cc1` [CBK307071]: 83.4%.
On to `CO[C@@]12CC[C@@H](OCC3CC3)C[C@@H]1N(Cc1c(C)cnn1C)CC2` [CBK307072], for which the viability at 28.5 h, 10 µM came to 97%.
`CNC(=O)CN1C[C@H](NC(=O)c2cccc3c2NCCC3)[C@@H](C(C)C)C1` [CBK307073]: the viability at 28.5 h, 10 µM was determined as 80.6%.
As for `CC(=O)NC1CCN(c2nc(N(C)C)nc3c2CCN(C(C)=O)C3)CC1` [CBK307079], the figure is 85.6%.
Next, `Cn1ncc2c(NCCCN3CCCC(CO)C3)nc(C(C)(C)C)nc21` (stereo not drawn) [CBK307082]: 93%; `COCC(=O)NCc1cc2n(n1)CCN(Cc1cccs1)C2` [CBK307085]: 106%; `O=c1cc(N2CCN(CC3(O)CCNC3)CC2)c(-c2ccccc2)n[nH]1` (stereo not drawn) [CBK307088]: 107%.
Next, `CCOc1ccc(NC(=O)N(C)Cc2noc(CC(C)C)n2)cc1C#N` [CBK307089]: 85.2%.
For the molecule `COc1cccc2ncn(CCCn3cccn3)c(=O)c12` [CBK307094], the viability at 28.5 h, 10 µM amounted to 89.7%.
As for `CCN(CC)C(=O)c1c(NC(=O)c2cccs2)sc2c1CCC2` [CBK307096], the figure is 93%; as for `CCCN1CC(NS(=O)(=O)c2ccc(OC)c3c2CCCC3)CC1=O` (stereo not drawn) [CBK307098], 79.7%.
Next, `O=C(Nc1sc2c(c1C(=O)N1CCOCC1)CCCCC2)c1cccs1` [CBK307099]: 105%; `CC1CCc2c(sc(NC(=O)c3cccs3)c2C(=O)N2CCOCC2)C1` (stereo not drawn) [CBK307101]: 100%.
Take `CCc1noc(CN2CCCC(c3ccc(C(=O)O)cc3)C2)n1` (stereo not drawn) [CBK307102]: the viability at 28.5 h, 10 µM was found to be 105%.
As for `CCC(NS(=O)(=O)c1cc(-n2cccn2)ccc1OC)C1CC(O)C1` (stereo not drawn) [CBK307103], the figure is 106%.
Next, `CCOc1ccc(-c2ccnc(N[C@H]3CC[C@@H](N)CC3)n2)cc1C(=O)O` [CBK307104]: 89.8%; `Cn1cc(CN2C[C@H]3CN(C(=O)C4CCC4)C[C@@]3(C(=O)O)C2)cc1C#N` [CBK307105]: 101%.
Next, `CO[C@H]1CN(C)C[C@@H]1NC(=O)c1cccc2c1NCCC2` [CBK307107]: 106%.
`CC(C)Cn1c(=O)c2c(nc3n2CCS3)n(C)c1=O` [CBK307109]: the viability at 28.5 h, 10 µM was found to be 98.1%.
Next, `CCOc1ccc(Cl)cc1CN(C)C(=O)NC(c1ncnn1C)C(C)C` (stereo not drawn) [CBK307110]: 80.5%; `CCOc1ccc(Cl)cc1CN(C)C(=O)NCc1nccn1C(C)C` [CBK307111]: 101%.
Next, `CCO[C@H]1COC[C@@H]1NC(=O)c1cccc2c1NCCC2` [CBK307113]: 94.9%; `CC(C)(C)C1CCc2c(sc(NC(=O)c3cccs3)c2C(N)=O)C1` (stereo not drawn) [CBK307114]: 85.4%.
`CC(C)N1CCCC2(CCN(C(=O)Cc3c[nH]c(=O)n(C)c3=O)C2)C1=O` (stereo not drawn) [CBK307115]: the viability at 28.5 h, 10 µM worked out at 87.8%.
As for `O=C(NCCCN1CCCC(O)C1)N1CCCN(Cc2cccs2)CC1` (stereo not drawn) [CBK307116], the figure is 82%.
As for `CC(O)CNC(=O)c1cn2cc(-c3cccs3)n(CC3CC3)c(=O)c2n1` (stereo not drawn) [CBK307117], the figure is 81.3%.
As for `Cc1cnc(C)c(N2CCN(c3cc([C@H]4C[C@@H](N)C4)ncn3)CC2)n1` [CBK307118], the figure is 88.7%; as for `CN1CCOCC(CNC(=O)c2ccc(-c3cnc(N)nc3)cc2)C1` (stereo not drawn) [CBK307119], 100%; as for `Cc1nnc(CCn2cnc3cccnc3c2=O)s1` [CBK307125], 96.7%.
As for `COc1coc(CN2C(=O)COc3cccnc32)cc1=O` [CBK307126], the viability at 28.5 h, 10 µM was 96.7%.
As for `CCCc1cn(C2CCN(c3cc(-n4cc(C)cn4)ncn3)CC2)nn1` [CBK307127], the figure is 104%.
Next, `O=C(NCCn1cccn1)N1CCCN(Cc2ccncc2)CC1` [CBK307129]: 90.1%.
As for `COCCn1c(CO)nnc1[C@H]1C[C@@H](NC(=O)c2ccc(O)c(F)c2)C1` [CBK307132], the figure is 74.1%.
Take `CCn1c(C)nnc1SCCNC(=O)c1cnc(N(C)C)nc1C` [CBK307135]: the viability at 28.5 h, 10 µM worked out at 93%.
As for `CSCCCN1CCn2nc(CNc3cnccn3)cc2C1` [CBK307136], the figure is 92.5%; as for `COc1ccc(Cc2nc(CC3CCCOC3)n(CC(F)(F)F)n2)cc1` (stereo not drawn) [CBK307140], 112%; as for `CCOC(=O)c1cn(CC)c2cc(N3CCN(C)CC3)c(F)cc2c1=O` [CBK307141], 92.9%.
As for `CCOC(=O)c1cn(CC)c2cc(N3CCOCC3)c(F)cc2c1=O` [CBK307142], the figure is 95.7%.
As for `Cc1cccn2c(CN3CCCOCC3)c(C(=O)N3CCOCC3)nc12` [CBK307144], the figure is 111%; as for `CCn1cc(C(=O)NN)c(=O)c2cc(F)c(N3CCCCCC3)cc21` [CBK307145], 100%; as for `CCNC(=O)N1CCC(Oc2cc(C)ccc2F)(C(=O)O)CC1` [CBK307147], 87.9%.
Regarding `CCn1cc(C(=O)NN)c(=O)c2cc(F)c(N3CCSCC3)cc21` [CBK307148], the viability at 28.5 h, 10 µM was 98.8%.
As for `Cc1nnc(N2CCn3nc(C(O)Cc4ccccc4)cc3C2)s1` (stereo not drawn) [CBK307152], the figure is 86%; as for `Cc1cc(-c2cn3cc(C(=O)N(C)CC(C)O)nc3c(=O)n2C)c(C)o1` (stereo not drawn) [CBK307154], 88%; as for `COCCn1cnnc1CN(C)C(=O)NC(C)c1nc2ccccc2[nH]1` (stereo not drawn) [CBK307155], 99.6%.
As for `CNc1nc(NCCc2cnc(=O)n(C)c2O)cc(C2CCOC2)n1` (stereo not drawn) [CBK307156], the viability at 28.5 h, 10 µM was found to be 105%.
Take `O=C(CCc1cn2ccccc2n1)NCc1cc2n(n1)CCCNC2` [CBK307157]: the viability at 28.5 h, 10 µM turned out to be 88.8%.
Next, `Cc1cc(=O)[nH]c(C)c1C(=O)N1CCC(N2CCCC(CO)C2)CC1` (stereo not drawn) [CBK307158]: 103%.
As for `COCC1(C(=O)N2CC(=O)N(c3ccccc3C#N)CC2C)CCC1` (stereo not drawn) [CBK307159], the figure is 89%.
As for `Cc1cc(-c2cn3cc(C(=O)NCCN(C)C)nc3c(=O)n2C)c(C)o1` [CBK307160], the figure is 94.3%; as for `CCCOCCCn1ccc2nc(OC)c(C#N)cc2c1=O` [CBK307162], 88%; as for `Cc1ccc(-n2cccn2)cc1S(=O)(=O)NCCN1CCCCC1CO` (stereo not drawn) [CBK307163], 122%.
Consider `CCn1cc(C(=O)N2CCOC(C(=O)O)C2)c(=O)c2ccc(C)nc21` (stereo not drawn) [CBK307165], for which the viability at 28.5 h, 10 µM is 83.5%.
Next, `NC1CC(c2cc(NCCOc3ccccc3Cl)ncn2)C1` (stereo not drawn) [CBK307167]: 73.7%; `CCc1nc(N)nc(N2CCC3(CCC(CNC(C)=O)O3)CC2)c1C` (stereo not drawn) [CBK307168]: 100%.
On to `CCOc1ccc(Cl)cc1CN(C)C(=O)NC(C)CN1CCOCC1` (stereo not drawn) [CBK307170], for which the viability at 28.5 h, 10 µM worked out at 92.4%.
As for `CCCc1nnc(NC(=O)CN2CCc3c(c(CO)nn3C)C2)s1` [CBK307172], the figure is 98.4%; as for `CCn1ccnc1CN1CCCC(CCc2ccccc2F)C1` (stereo not drawn) [CBK307173], 99.3%; as for `Cc1cc(C)n(CCCC(=O)N2CC3(CCNCC3)CC2C(=O)O)n1` (stereo not drawn) [CBK307174], 89.5%.
Next, `CCCNC(=O)c1nn2c(c1Cl)NC(c1cccs1)CC2C(F)(F)F` (stereo not drawn) [CBK307177]: 90.3%; `COCCNC(=O)c1nn2c(c1Br)NC(c1cccs1)CC2C(F)(F)F` (stereo not drawn) [CBK307178]: 84.5%; `Cc1cc(C(=O)NC(Cc2ccncc2)C2CC(O)C2)c(C)o1` (stereo not drawn) [CBK307181]: 96.5%.
Next, `COc1cc(NC(=O)NCc2cncn2CC(C)C)c2ncccc2c1` [CBK307182]: 52.1%.
`CC(C)CC(NC(=O)Cc1cccc(O)c1)c1nnc2n1CCNCC2` (stereo not drawn) [CBK307183]: the viability at 28.5 h, 10 µM is 98.3%.
As for `CCn1c(C2CCN(C(=O)c3cc(C(F)(F)F)n[nH]3)CC2)nn(C)c1=O` [CBK307184], the figure is 88.9%; as for `Cc1cc(C)n(CC(=O)NCCCn2ccnc2C(C)C)c(=O)n1` [CBK307185], 92.4%.
As for `Cc1cc(F)ccc1OC1(C(=O)O)CCN(Cc2ccoc2)CC1` [CBK307187], the figure is 104%.
As for `Cc1cccc(C(=O)NC(CC(C)C)c2nnc3n2CCNCC3)c1O` (stereo not drawn) [CBK307191], the figure is 99.6%.
Turning to `Clc1ccc(OCCCn2ccnc2)c(CN2CCSCC2)c1` [CBK307194], the viability at 28.5 h, 10 µM worked out at 104%.
As for `Cc1nn(C)c(C)c1CCC(=O)NCC1CN(c2ccccc2)CCO1` (stereo not drawn) [CBK307199], the figure is 103%.

The values are drawn from PMC12040169 (PLOS Biology, 2025).
